Patent publication US20030219467A1, “Method for the inhibition of methanogensis” (The Board of Regents of the University of Nebraska, priority 2001, published 2003)
Values after ≈ are worked out from the molar mass of the structure shown. Like-named read-outs stand apart in the source and are kept apart here.

Legend:
RFA-P synthase = target: T1, RFA-P synthase (Archaeoglobus fulgidus, UniProt O28190); test: biochemical; assay type: biochemical
T1 sequence (O28190 1-313): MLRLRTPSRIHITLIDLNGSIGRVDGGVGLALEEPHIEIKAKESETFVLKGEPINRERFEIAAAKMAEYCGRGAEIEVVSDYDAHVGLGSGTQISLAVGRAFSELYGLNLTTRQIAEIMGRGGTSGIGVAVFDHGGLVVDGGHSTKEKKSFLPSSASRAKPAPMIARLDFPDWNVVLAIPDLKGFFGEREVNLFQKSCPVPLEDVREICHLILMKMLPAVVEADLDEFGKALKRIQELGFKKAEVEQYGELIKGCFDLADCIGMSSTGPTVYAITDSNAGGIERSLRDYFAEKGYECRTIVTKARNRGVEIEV

M. marburgensis [1] = test: microbe, parasite or virus in culture; assay type: cell-based; conditions: for MIC: read-out: Inhibition of Growth M. marburgensis: concentration of compound which completely inhibited growth; for inhibition of growth of Methanothermobacter marburgensis (figure legend): FIG. 4: 1000 μM A2, 300 μM and 500 μM A4
ruminal organisms = test: Ruminal fluid batch culture (artificial rumen): growth inhibition / methane formation; assay type: cell-based, steers
M. marburgensis [2] = assay type: cell-based
Moorella thermoacetica = test: Inhibition of growth of acetogen Moorella thermoacetica; assay type: cell-based; conditions: FIG. 5
[3] = Methanothermobacter marburgensis, H2/CO2-grown, 65° C., OD 580 nm, words refer to 1 millimolar
[4] = inhibition constant, substrates at saturating concentrations, first tested at 1 mM, competitive inhibition fit, read-out: Ki
[5] = Methanothermobacter marburgensis
[6] = total methane over 48 hours, compound at (100), 600 micromoles without inhibitor

Row | Compound | MIC (M. marburgensis [1]; [3]) [µM] | Ki (RFA-P synthase; [4]) [µM] | other results
1 | CCCCOP(=O)(O)c1ccc(N)cc1 [Compound A14] | – | – | Ki (RFA-P synthase): 25 µM
2 | CCOC(=O)c1ccc(NC(C)C)cc1 [Compound A11] | 1000 (≈ 207 µg/mL) | 130 | –
3 | O=C(O)c1ccc(NCc2ccco2)cc1 [Compound A6] | 300 (≈ 65.2 µg/mL) | 7.5 | –
4 | CCNc1ccc(C(=O)O)cc1 [4-(ethylamino)benzoate] | – | – | methane production, % of the control level (ruminal organisms): 2.5%
5 | OB(O)c1ccncc1 [Compound A74] | – | 200 | –
6 | CC(Nc1ccc(C(=O)O)cc1)C(F)(F)F (centres unmarked) [Compound A22] | – | 59 | –
7 | O=C(O)c1ccc(NCc2cccs2)cc1 [Compound A27] | – | 72 | –
8 | Nc1cccc(CC(=O)O)c1 [Compound A43] | 500 (≈ 75.6 µg/mL) | – | –
9 | O=C(O)c1ccc(NC2CCCC2)cc1 [Compound A25] | 1000 (≈ 205 µg/mL) | – | –
10 | CCCCOC(=O)c1ccc(NC(C)C)cc1 [Compound A66] | 1000 (≈ 235 µg/mL) | 190 | –
11 | CC(C)CN[C@H]1CC[C@@H](C(=O)O)CC1 [Compound B3] | – | 44 | –
12 | CCOP(=O)(O)c1ccc(N)cc1 [Compound A48] | – | – | Ki (RFA-P synthase): 65 µM
13 | Cc1cccc(CNc2ccc(C(=O)O)cc2)n1 [Compound A34] | – | 19 | –
14 | O=C(O)Cc1ccc(O)cc1 [Compound A44] | – | – | Ki (RFA-P synthase): 115 µM
15 | NCc1ccc(C(=O)O)cc1 [Compound A7, 4-(aminomethyl)benzoic acid] | – | 75 | Methane Produced (M. marburgensis [2]): 0.07 μ moles; inhibition of RFA-P synthase (figure legend) (RFA-P synthase): inhibit RFA-P synthase
16 | O=C(O)c1ccc(NCc2ccc3ccccc3n2)cc1 [Compound A35] | 1000 (≈ 278 µg/mL) | – | –
17 | O=C(O)[C@H]1CC[C@@H](NCc2ccco2)CC1 [Compound B1] | 0.1 (≈ 0.0223 µg/mL) | 63 | –
18 | O=P(O)(O)OC[C@H]1N[C@@H](c2ccccc2)[C@H](O)[C@@H]1O [Compound C1] | 500 (≈ 145 µg/mL) | 30 | –
19 | CC(C)CNc1ccc(C(=O)O)cc1 [Compound A4] | 500 (≈ 96.6 µg/mL) | 10 | inhibition of growth of Methanothermobacter marburgensis (figure legend) (M. marburgensis [1]): inhibit growth; Methane Produced (M. marburgensis [2]; total methane over 48 hours, compound at (500), 600 micromoles without inhibitor): 0.02 μ moles; inhibition of RFA-P synthase (figure legend) (RFA-P synthase): inhibit RFA-P synthase; inhibition of growth of Moorella thermoacetica (figure legend) (Moorella thermoacetica): inability
20 | CCCCCCNc1ccc(C(=O)O)cc1 [Compound A21] | 500 (≈ 111 µg/mL) | – | –
21 | Nc1ccc(P(=O)(O)O)cc1 [Compound A49] | – | – | Ki (RFA-P synthase): 85 µM
22 | Nc1cc(C(=O)O)ccn1 [Compound A39] | 1000 (≈ 138 µg/mL) | – | –

Row | Compound | MIC (M. marburgensis [1]; [3]) [µM] | Ki (RFA-P synthase; [4]) [µM] | other results
23 | CCC(C(=O)O)c1ccc(N)cc1 (centres unmarked) [Compound A41] | 500 (≈ 89.6 µg/mL) | – | –
24 | O=C(O)c1c[nH]cn1 [Compound D3] | – | – | MIC (M. marburgensis [1]; [5]): 1000 µM (≈ 112 µg/mL)
25 | O=C(O)c1ccc(NCc2ccoc2)cc1 [Compound A26] | 100 (≈ 21.7 µg/mL) | 84 | Methane Produced (M. marburgensis [2]; [6]): 0.06 μ moles
26 | O=C(O)c1ccc(NCc2ccccc2O)cc1 [Compound A31] | 1000 (≈ 243 µg/mL) | 705 | –
27 | Cc1cc(C(=O)O)ccc1NC(C)C [Compound A16] | 300 (≈ 58 µg/mL) | 23 | –
28 | O=C(O)c1ccc(NCc2ccccc2)cc1 [Compound A29] | 500 (≈ 114 µg/mL) | 51 | –
29 | Nc1ccc(/C=C/C(=O)O)cc1 [Compound A80] | 500 (≈ 81.6 µg/mL) | – | –
30 | OCc1ccc([C@@H]2N[C@H](CO)[C@@H](O)[C@H]2O)cc1 [Compound C4] | 1000 (≈ 239 µg/mL) | – | –
31 | N[C@H]1CC[C@H](C(=O)O)CC1 [Compound B7] | 500 (≈ 71.6 µg/mL) | – | –
32 | O=C(O)c1ccc(NCCO)cc1 [Compound A5] | 300 (≈ 54.4 µg/mL) | 17 | –
33 | O=C(O)c1ccc(NCc2ccccn2)cc1 [Compound A33] | 0.1 (≈ 0.0228 µg/mL) | 19 | Methane Produced (M. marburgensis [2]; total methane over 48 hours, compound at (0.1), 600 micromoles without inhibitor): 0.08 μ moles
34 | Nc1ccc(S(=O)(=O)O)cc1 [Compound A12] | – | 7 | –
35 | O=C(O)c1ccc(NCc2ccc(O)cc2)cc1 [Compound A32] | 300 (≈ 73 µg/mL) | – | –
36 | CC(C)CCNc1ccc(C(=O)O)cc1 [Compound A24] | 1000 (≈ 207 µg/mL) | – | –
37 | O=C(O)Cc1ccc(NCc2ccco2)cc1 [Compound A42] | 1000 (≈ 231 µg/mL) | – | –
38 | O=C(O)c1ccc(NCc2ccccn2)cc1 [4-[(2-pyridylmethyl)amino]benzoic acid] | – | – | concentration that completely arrests growth of and methane formation by M. marburgensis (M. marburgensis [1]): 100 mM; reversal of inhibition by supplementing the medium with pABA (M. marburgensis [1]; M. marburgensis): fully reversed
39 | CCCNc1ccc(C(=O)O)cc1 [Compound A20] | 600 (≈ 108 µg/mL) | 20 | Methane Produced (M. marburgensis [2]; total methane over 48 hours, compound at (600), 600 micromoles without inhibitor): 0.05 μ moles; inhibition of RFA-P synthase (figure legend) (RFA-P synthase): inhibit RFA-P synthase
40 | NCc1ccc(B(O)O)cc1 [Compound A2] | – | 140 | inhibition of growth of Methanothermobacter marburgensis (figure legend) (M. marburgensis [1]): inhibit growth; inhibition of growth of Moorella thermoacetica (figure legend) (Moorella thermoacetica): inability
41 | CCCCNc1ccc(C(=O)O)cc1 [Compound A58] | – | – | MIC (M. marburgensis [1]; [5]): 1000 µM (≈ 193 µg/mL)
42 | CCOP(=O)(OCC)c1ccc(NCC(C)C)cc1 [Compound A47] | – | – | MIC (M. marburgensis [1]): 500 µM (≈ 143 µg/mL)
43 | O=C(O)c1ccc(NCc2ccncc2)cc1 [Compound A36] | 1000 (≈ 228 µg/mL) | – | –
44 | CC(C)OP(=O)(O)c1ccc(NCc2cccnc2)cc1 [Compound A52] | – | – | MIC (M. marburgensis [1]; [5]): 1000 µM (≈ 306 µg/mL)

Row | Compound | MIC (M. marburgensis [1]; [3]) [µM] | Ki (RFA-P synthase; [4]) [µM] | other results
45 | Nc1ccc(CC(=O)O)cc1 [Compound A9, (4-aminophenyl)acetic acid] | – | 60 | MIC (M. marburgensis [1]; [5]): 1000 µM (≈ 151 µg/mL)
46 | O=C(O)c1ccc(NCc2ccsc2)cc1 [Compound A28] | 1000 (≈ 233 µg/mL) | 55 | –
47 | OCc1ccc(B(O)O)cc1 [Compound A15] | – | 9 | MIC (M. marburgensis [1]; [5]): 100 µM (≈ 15.2 µg/mL)
48 | CC(C)OP(=O)(O)c1ccc(NCc2ccco2)cc1 [Compound A51] | – | – | MIC (M. marburgensis [1]; [5]): 100 µM (≈ 29.5 µg/mL)
49 | CNc1ccc(C(=O)O)cc1 [Compound A56] | – | 145 | –
50 | O=C(O)[C@H]1CC[C@H](NCc2ccco2)CC1 [Compound B2] | 500 (≈ 112 µg/mL) | – | –
51 | CC(C)Nc1ccc(C(=O)O)cc1 [Compound A3] | 100 (≈ 17.9 µg/mL) | 9 | Methane Produced (M. marburgensis [2]; [6]): 0.01 μ moles
52 | CC(C)Nc1ccc(C(=O)O)cc1 [4-(isopropylamino)benzoic acid] | – | – | inhibition of methanogen growth (figure legend) (M. marburgensis [1]; FIG. 7A: M. marburgensis, 15, 25, 75 and 90 micromoles of compound, OD 580 nm): inhibition of methanogen growth; inhibition of RFA-P synthase (figure legend) (RFA-P synthase): inhibition of RFA-P synthase
53 | CCCCOP(=O)(O)c1ccc(NCc2ccccn2)cc1 [Compound A55] | – | – | MIC (M. marburgensis [1]; [5]): 100 µM (≈ 32 µg/mL); Ki (RFA-P synthase): 25 µM
54 | O=C(O)c1ccc(CO)cc1 [Compound A40] | – | 270 | –
55 | O=C(O)c1ccc(NCCO)cc1 [4-(2-hydroxyethylamino)benzoate] | – | – | methane production, % of the control level (ruminal organisms; artificial rumen, 9 mM compound): 2.5%
56 | Nc1n[nH]c(C(=O)O)n1 [Compound D7] | 1000 (≈ 128 µg/mL) | – | –
57 | Cc1cc(S(=O)(=O)O)ccc1N [Compound A45] | – | – | MIC (M. marburgensis [1]; [5]): 500 µM (≈ 93.6 µg/mL)
58 | CC(C)OP(=O)(O)c1ccc(N)cc1 [Compound A13] | – | – | MIC (M. marburgensis [1]; [5]): 1000 µM (≈ 215 µg/mL); Ki (RFA-P synthase): 15 µM
59 | CC(C)Nc1ccc(P(=O)(O)OC(C)C)cc1 [Compound A50] | – | – | MIC (M. marburgensis [1]; [5]): 100 µM (≈ 25.7 µg/mL)
60 | CCCCOP(=O)(O)c1ccc(NC(C)C)cc1 [Compound A53] | – | – | MIC (M. marburgensis [1]; [5]): 300 µM (≈ 81.4 µg/mL); Ki (RFA-P synthase): 25 µM
61 | Nc1nc(CC(=O)O)cs1 [Compound D6] | 500 (≈ 79.1 µg/mL) | – | –
62 | Nc1ccc(C(=O)O)cc1O [Compound A38] | 500 (≈ 76.6 µg/mL) | – | –
63 | O=C(O)c1ccc(NCc2c(F)c(F)c(F)c(F)c2F)cc1 [Compound A30] | 500 (≈ 159 µg/mL) | – | –
64 | CCCOC(=O)c1ccc(NC(C)C)cc1 [Compound A65] | – | 130 | –
65 | CCNc1ccc(C(=O)O)cc1 [Compound A19] | – | – | MIC (M. marburgensis [1]; [5]): 300 µM (≈ 49.6 µg/mL); Ki (RFA-P synthase): 155 µM
